Like-named read-outs stand apart in the source and are kept apart here.

These results are taken from US20160067247A1, “NOVEL USE” (GlaxoSmithKline Intellectual Property (No.2) Limited, priority 2012, published 2016).

Experiment [1] has as its system AKT phosphorylation. Put plainly: AKT phosphorylation in cells (macrophages) isolated from IPF BALF, MSD assay (Example 1). The experiment is classed as cell-based. The following applies: Homo sapiens, Macrophage, 25 min; macrophages isolated from n=3 IPF BALFs; 25 minutes incubation; geometric mean (95% CI 0.28-1.08 nM); read-out: IC50 for inhibition of AKT phosphorylation. An excerpt: Phosphorylation of AKT is widely accepted as an indication of PI3-kinase activity, and is utilised here to obtain an IC50 for the effect of 2,4-difluoro-N-{2-(methyloxy)-5-[4-(4-pyridazinyl)-6-quinolinyl]-3-pyridinyl}benzenesulfonamide on primary human lung fibroblasts isolated from the IPF patients, in addition to macrophages isolated from IPF bronchoalveolar lavage (BALF).
In similar experiments, inhibition of AKT phosphorylation by 2,4-difluoro-N-{2-(methyloxy)-5-[4-(4-pyridazinyl)-6-quinolinyl]-3 pyridinyl}benzenesulfonamide is assessed in cells isolated from IPF BALF. Briefly, BAL cells are resuspended in 0.1% BSA RPMI media to a cell provide a cell count of 5.7×10^4-8.3×10^4 cells per well. BAL cells are added to a 96 well plate and incubated with a range of 2,4-difluoro-N-{2-(methyloxy)-5-[4-(4-pyridazinyl)-6-quinolinyl]-3 pyridinyl}benzenesulfonamide (0.1% DMSO and 0.1% BSA final concentration in the assay). After 25 minutes incubation at 37° C., 5% CO2 the plate is spun for 5 min at 1600 rpm. The supernatants are decanted and 40 μl of phosphosafe lysis buffer containing protease inhibitors is added to each well. The plate is then snap frozen in liquid nitrogen and stored at −80° C. prior to further analysis. Following thawing on ice, cell lysates are transferred onto phospho Akt, total Akt Meso Scale Discovery (MSD) capture plates and processed as described above.

In experiment [2] the test system is primary human lung fibroblasts differentiated into myofibroblasts. Put plainly: Pro-collagen accumulation (hydroxyproline by HPLC) in supernatants of TGFβ differentiated myofibroblasts. It counts as cell-based. The following applies: for inhibition at 0.003 µM / inhibition at 0.03 µM: Homo sapiens, Fibroblast. How it is done:
Cultured non-IPF cell lines (as described in section 3.1.2) were used to study pro-collagen accumulation in cell culture supernatants, following TGF6 induced myofibroblast differentiation.
Cells were seeded at 100,000 cells per well in 12-well plates (NUNC #150628) in 1 mL complete DMEM and incubated until they reached 100% confluence (4-5 days). Medium was removed from the confluent cells and replaced with 1 mL pre-incubation medium (DMEM containing 4 mM glutamine, 50 μg/mL ascorbic acid, 0.2 mM proline and 0.4% FBS) and incubated for a further 24 hours. Fresh pre-incubation medium was added to 3 wells and immediately collected for analysis in order to determine background level (T0) of hydroxyproline present in the culture medium at the start of the incubation period. […]
Following 24 hours serum starvation, fibroblasts were stimulated with TGFβ1 (1 ng/mL, 24 hours) (R&D #101-B1) to induce myofibroblast differentiation. Subsequently TGFβ1 was either removed or replenished (by complete serum free media change±TGFβ, 1 ng/ml) and 2,4-difluoro-N-{2-(methyloxy)-5-[4-(4-pyridazinyl)-6-quinolinyl]-3 pyridinyl}benzenesulfonamide (final concentration 3 nM or 30 nM, in 0.1% DMSO) added. Dilutions of 2,4-difluoro-N-{2-(methyloxy)-5-[4-(4-pyridazinyl)-6-quinolinyl]-3 pyridinyl}benzenesulfonamide were prepared from a stock of 0.03M by serial 10-fold dilution in 0.1% DMSO and a further 1000-fold dilution. Differentiated myofibroblast cultures were incubated for further 24 and 48 hours at 37° C., 100% humidity, 10% CO2. See FIG. 1 and FIG. 2 for schematic of the experimental regimen.
At the end of each incubation time point cell supernatant was collected and frozen at −80° C. The cell layer was detached by incubating with 250 μL of 0.25% trypsin-EDTA for 5 minutes and a 1 mL suspension was made in DMEM. Cell counts were performed on the cell suspension using Sceptre […] sensor.
The cell supernatants were allowed to thaw at room temperature and proteins were precipitated overnight in 67% (v/v) ethanol at 4° C.
Precipitated proteins were recovered by vacuum filtration onto Durapore polyvinylidene difluoride (PVDF) membrane filters (pore size 0.45 μm) (type HV, Millipore Ltd., UK; # HVLP02500) and the adhering protein was washed twice with 1.5 mL ethanol (67% v/v). Filters with adherent protein were transferred to Pyrex hydrolysis tubes containing 2 mL 6M HCl. Ethanol-insoluble fractions were then hydrolysed at 110° C. for 16 h and the samples were decolourised by mixing with approx. 70 mg of charcoal and filtered onto Durapore membrane filters (pore size 0.65 μm) (type DA, Millipore Ltd., UK; DVPP02500). Aliquots (100 μl) of decolourised hydrolysate were transferred to 1.5 mL centrifuge tubes and evaporated to dryness using speed vac concentrator (Savant SPD 131DDA, Thermo Electron Corporation, Cambridge, UK).
Hydroxyproline accumulation in cell culture supernatants is used as a measure of pro-collagen production. Hydroxyproline represents approximately 12% of the primary sequence of pro-collagen and is essential for the formation of the collagen triple helix. Hydroxproline is not present in significant levels in any other proteins. Levels of hydroxyproline in cell culture hydrolysates was quantified by reverse-phase high performance liquid chromatography (HPLC) following derivitisation with 7-chloro-4-nitrobenzo-oxa-1; 3-diazole (NBD-CI) (Sigma; #17239-0050).
Hydroxyproline Standard: Standard samples of Trans-4-hydroxy-L-proline (PHPRO) Sigma; #H5534) are stored frozen at −20° C. in 10 μL (250 μM) aliquots. A 10 μL aliquot was diluted in 990 μL Milli-Q water (Milli-Q Plus; Millipore Ltd., UK) and used as standard. The final amount of Hydroxyproline (Hyp) standard loaded onto the column was 50 pmoles.
Samples: Milli-Q water (100 μL) was added to the dried aliquot of hydrolysate and left to rehydrate at 4° C. overnight. […]

In the case of `COc1ncc(-c2ccc3nccc(-c4ccnnc4)c3c2)cc1NS(=O)(=O)c1ccc(F)cc1F` [2,4-difluoro-N-{2-(methyloxy)-5-[4-(4-pyridazinyl)-6-quinolinyl]-3-pyridinyl}benzenesulfonamide], in experiment [1], the IC50 worked out at 0.54 nM. Besides, the inhibition at 0.003 µM in experiment [2] (24 h, line 0110 (A), TGFβ removed, 3 nM, 24 hour, read-out: mean percent inhibition of TGFβ induced pro-collagen production) was determined as 31.6%; in experiment [2] (24 h, line 0610 (B), TGFβ removed, 3 nM, 24 hour, read-out: mean percent inhibition of TGFβ induced pro-collagen production), 26.2%; in experiment [2] (24 h, line 0610 (B), TGFβ replenished, 3 nM, 24 hour, read-out: mean percent inhibition of TGFβ induced pro-collagen production following replenishment of TGFβ), 29.1%; in experiment [2] (48 h, line 0110 (A), TGFβ removed, 3 nM, 48 hour, read-out: mean percent inhibition of TGFβ induced pro-collagen production), 48.1%; in experiment [2] (48 h, line 0110 (A), TGFβ replenished, 3 nM, 48 hour, read-out: mean percent inhibition of TGFβ induced pro-collagen production following replenishment of TGFβ), 6.3%; in experiment [2] (48 h, line 0610 (B), TGFβ removed, 3 nM, 48 hour, read-out: mean percent inhibition of TGFβ induced pro-collagen production), 35.6%. The inhibition at 0.03 µM in experiment [2] (24 h, line 0110 (A), TGFβ removed, 30 nM, 24 hour, read-out: mean percent inhibition of TGFβ induced pro-collagen production) is 60.8%; in experiment [2] (24 h, line 0610 (B), TGFβ removed, 30 nM, 24 hour, read-out: mean percent inhibition of TGFβ induced pro-collagen production), 56.8%; in experiment [2] (24 h, line 0610 (B), TGFβ replenished, 30 nM, 24 hour, read-out: mean percent inhibition of TGFβ induced pro-collagen production following replenishment of TGFβ), 45.4%; in experiment [2] (48 h, line 0110 (A), TGFβ removed, 30 nM, 48 hour, read-out: mean percent inhibition of TGFβ induced pro-collagen production) it was 64%; in experiment [2] (48 h, line 0110 (A), TGFβ replenished, 30 nM, 48 hour, read-out: mean percent inhibition of TGFβ induced pro-collagen production following replenishment of TGFβ), 35.2%; in experiment [2] (48 h, line 0610 (B), TGFβ removed, 30 nM, 48 hour, read-out: mean percent inhibition of TGFβ induced pro-collagen production) it was 59.6%. Besides, the inhibition at 0.03 µM in experiment [2] (48 h, line 0610 (B), TGFβ replenished, 30 nM, 48 hour, read-out: mean percent inhibition of TGFβ induced pro-collagen production following replenishment of TGFβ) turned out to be 37.7%. The “mean percent inhibition of TGFβ induced pro-collagen production following replenishment of TGFβ” value in experiment [2] (line 0110 (A), TGFβ replenished, 3 nM, 24 hour) was “No inhibition”; in experiment [2] (line 0110 (A), TGFβ replenished, 30 nM, 24 hour), “No inhibition”; in experiment [2] (line 0610 (B), TGFβ replenished, 3 nM, 48 hour), “No inhibition”.
